Measurements reported in ChEMBL document CHEMBL4002623, “Synthesis and in vitro activity of dicationic indolyl diphenyl ethers as novel potent antibiotic agents against drug-resistant bacteria” (Bioorg Med Chem Lett, 2017).

Key:
Klebsiella pneumoniae [1] = assay: Antibacterial activity against Klebsiella pneumoniae ATCC BAA-2146 expressing NDM-1 by agar dilution method; type: functional
Enterococcus faecalis [2] = assay: Antibacterial activity against vancomycin-sensitive Enterococcus faecalis ATCC 29212 by agar dilution method; type: functional
Klebsiella aerogenes = assay: Antibacterial activity against Enterobacter aerogenes 45102 by agar dilution method; type: functional
Enterococcus faecium [3] = assay: Antibacterial activity against vancomycin-sensitive Enterococcus faecium 09-10 by agar dilution method; type: functional
Enterococcus faecium [4] = assay: Potency index, ratio of levofloxacin MIC to test compound MIC for vancomycin-resistant Enterococcus faecium ATCC 700221; type: functional
Escherichia coli [5] = assay: Antibacterial activity against extended-spectrum beta-lactamase-positive Escherichia coli 09-1 by agar dilution method; type: functional
[6] = Cytotoxicity against HEK293T cells after 48 hrs by MTS assay; type: cell-based, HEK-293T; settings: human
Providencia rettgeri = assay: Antibacterial activity against Providencia rettgeri ATCC 31052 by agar dilution method; type: functional
Pseudomonas aeruginosa [7] = assay: Antibacterial activity against Pseudomonas aeruginosa ATCC 27853 by agar dilution method; type: functional
Staphylococcus aureus [8] = assay: Potency index, ratio of levofloxacin MIC to test compound MIC for methicillin-resistant Staphylococcus aureus 09-13; type: functional
Enterococcus faecalis [9] = assay: Antibacterial activity against vancomycin-sensitive Enterococcus faecalis 09-8 by agar dilution method; type: functional
Serratia marcescens = assay: Antibacterial activity against Serratia marcescens 41002 by agar dilution method; type: functional
Staphylococcus aureus [10] = assay: Antibacterial activity against methicillin-resistant Staphylococcus aureus ATCC 33591 by agar dilution method; type: functional
Klebsiella pneumoniae [11] = assay: Antibacterial activity against extended-spectrum beta-lactamase-negative Klebsiella pneumoniae 7 by agar dilution method; type: functional
Klebsiella pneumoniae [12] = assay: Antibacterial activity against extended-spectrum beta-lactamase-positive Klebsiella pneumoniae 09-25 by agar dilution method; type: functional
Pseudomonas aeruginosa [13] = assay: Antibacterial activity against Pseudomonas aeruginosa PAO1 by agar dilution method; type: functional
Enterococcus faecalis [14] = assay: Potency index, ratio of levofloxacin MIC to test compound MIC for vancomycin-resistant Enterococcus faecalis 09-9; type: functional
Klebsiella pneumoniae [15] = assay: Antibacterial activity against extended-spectrum beta-lactamase-negative Klebsiella pneumoniae 09-8 by agar dilution method; type: functional
Proteus vulgaris = assay: Antibacterial activity against Proteus vulgaris ATCC 29905 by agar dilution method; type: functional
[16] = test system: Staphylococcus epidermidis; assay: Antibacterial activity against methicillin-resistant Staphylococcus epidermidis 09-3 by agar dilution method; type: functional
Escherichia coli [17] = assay: Antibacterial activity against extended-spectrum beta-lactamase-negative Escherichia coli 09-20 by agar dilution method; type: functional
Citrobacter freundii = assay: Antibacterial activity against Citrobacter freundii ATCC 43864 by agar dilution method; type: functional
Klebsiella pneumoniae [18] = assay: Antibacterial activity against extended-spectrum beta-lactamase-positive Klebsiella pneumoniae ATCC 700603 by agar dilution method; type: functional
Enterococcus faecalis [19] = assay: Antibacterial activity against vancomycin-resistant Enterococcus faecalis 09-9 by agar dilution method; type: functional
Escherichia coli [20] = assay: Antibacterial activity against extended-spectrum beta-lactamase-negative Escherichia coli ATCC 25922 by agar dilution method; type: functional
Morganella morganii = assay: Antibacterial activity against Morganella morganii ATCC 25830 by agar dilution method; type: functional
Proteus mirabilis = assay: Antibacterial activity against Proteus mirabilis 09-1 by agar dilution method; type: functional
[21] = test system: Staphylococcus epidermidis; assay: Antibacterial activity against methicillin-sensitive Staphylococcus epidermidis ATCC 12228 by agar dilution method; type: functional
Enterococcus faecium [22] = assay: Antibacterial activity against vancomycin-resistant Enterococcus faecium ATCC 700221 by agar dilution method; type: functional
Pseudomonas aeruginosa [23] = assay: Antibacterial activity against Pseudomonas aeruginosa 09-14 by agar dilution method; type: functional
Enterobacter cloacae = assay: Antibacterial activity against Enterobacter cloacae 45301 by agar dilution method; type: functional
Staphylococcus aureus [24] = assay: Antibacterial activity against methicillin-sensitive Staphylococcus aureus ATCC 29213 by agar dilution method; type: functional
Staphylococcus aureus [25] = assay: Antibacterial activity against methicillin-sensitive Staphylococcus aureus 09-6 by agar dilution method; type: functional
Staphylococcus aureus [26] = assay: Antibacterial activity against methicillin-resistant Staphylococcus aureus 09-13 by agar dilution method; type: functional
Staphylococcus aureus [27] = assay: Antibacterial activity against methicillin-sensitive Staphylococcus aureus 15 by agar dilution method; type: functional
Salmonella typhi = assay: Antibacterial activity against Salmonella typhi H901 by agar dilution method; type: functional, Salmonella enterica subsp. enterica serovar Typhi; settings: Salmonella enterica
[28] = test system: Acinetobacter calcoaceticus; assay: Antibacterial activity against Acinetobacter calcoaceticus ATCC 19606 by agar dilution method; type: functional
[29] = test system: Staphylococcus epidermidis; assay: Potency index, ratio of levofloxacin MIC to test compound MIC for methicillin-resistant Staphylococcus epidermidis 09-3; type: functional
[30] = test system: Staphylococcus epidermidis; assay: Antibacterial activity against methicillin-sensitive Staphylococcus epidermidis 09-9 by agar dilution method; type: functional
Enterococcus faecalis [31] = assay: Antibacterial activity against vancomycin-resistant Enterococcus faecalis ATCC 51299 by agar dilution method; type: functional
Escherichia coli [32] = assay: Antibacterial activity against extended-spectrum beta-lactamase-negative Escherichia coli 1515 by agar dilution method; type: functional
Enterococcus faecium [33] = assay: Antibacterial activity against vancomycin-resistant Enterococcus faecium 05-8 by agar dilution method; type: functional

N=C(c1ccc2cc(-c3ccc(Oc4ccc(-c5cc6ccc(C(=N)N7CCC7)cc6[nH]5)cc4)cc3)[nH]c2c1)N1CCC1
32 µg/mL: MIC (Salmonella typhi)
8 µg/mL: MIC (Enterococcus faecium [3]) | MIC (Enterococcus faecalis [19]) | MIC (Morganella morganii)
21.6 µg/mL: CC50 at 48 h [6]
16 µg/mL: MIC (Escherichia coli [20])
0.125 µg/mL: MIC [21]
> 128 µg/mL: MIC (Providencia rettgeri) | MIC (Pseudomonas aeruginosa [13]) | MIC (Pseudomonas aeruginosa [23]) | MIC (Enterobacter cloacae) | MIC [28]
128 µg/mL: MIC (Pseudomonas aeruginosa [7]) | MIC (Serratia marcescens) | MIC (Proteus vulgaris) | MIC (Proteus mirabilis)
4 - 8: Ratio (Staphylococcus aureus [8]) | Ratio [29]
64 µg/mL: MIC (Klebsiella aerogenes) | MIC (Escherichia coli [5]) | MIC (Klebsiella pneumoniae [11]) | MIC (Klebsiella pneumoniae [15]) | MIC (Escherichia coli [17]) | MIC (Citrobacter freundii) | MIC (Klebsiella pneumoniae [18]) | MIC (Escherichia coli [32])
16 - 64: Ratio (Enterococcus faecium [4]) | Ratio (Enterococcus faecalis [14])
0.5 µg/mL: MIC (Staphylococcus aureus [10]) | MIC [16] | MIC (Staphylococcus aureus [26]) | MIC (Staphylococcus aureus [27]) | MIC [30]
2 µg/mL: MIC (Enterococcus faecalis [2]) | MIC (Enterococcus faecalis [9]) | MIC (Enterococcus faecium [22]) | MIC (Staphylococcus aureus [24]) | MIC (Staphylococcus aureus [25]) | MIC (Enterococcus faecalis [31]) | MIC (Enterococcus faecium [33])
64 to 128 µg/mL: MIC (Klebsiella pneumoniae [1]) | MIC (Klebsiella pneumoniae [12])
